Data taken from ChEMBL document CHEMBL5113505 (Eur J Med Chem, 2022).
pIC50: −log10 of the molar value.

Tests used:
[1] = target: T1, Dual specificity mitogen-activated protein kinase kinase 7 (Homo sapiens) (UniProt O14733); test: Binding affinity to MKK7 (unknown origin) assessed as percent of control at 100 nM by Kinomescan method relative to control
T1 sequence (whole entry): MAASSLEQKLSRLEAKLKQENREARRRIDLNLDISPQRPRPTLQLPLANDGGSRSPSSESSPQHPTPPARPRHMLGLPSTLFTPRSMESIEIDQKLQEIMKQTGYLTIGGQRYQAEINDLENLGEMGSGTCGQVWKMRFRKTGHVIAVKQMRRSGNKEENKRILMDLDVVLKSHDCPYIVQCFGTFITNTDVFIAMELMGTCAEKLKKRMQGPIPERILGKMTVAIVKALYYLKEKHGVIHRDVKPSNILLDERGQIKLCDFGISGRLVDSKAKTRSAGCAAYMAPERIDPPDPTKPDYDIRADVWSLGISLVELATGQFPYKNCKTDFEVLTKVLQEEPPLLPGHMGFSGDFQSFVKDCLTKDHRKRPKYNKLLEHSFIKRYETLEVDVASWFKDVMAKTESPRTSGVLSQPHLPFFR

[2] = target: Mitogen-activated protein kinase kinase kinase 20 (Homo sapiens) (UniProt Q9NYL2); test: Binding affinity to ZAK (unknown origin) assessed as percent of control at 100 nM by Kinomescan method relative to control
[3] = target: T2, Dual specificity mitogen-activated protein kinase kinase 6 (Homo sapiens, UniProt P52564); test: Inhibition of MKK6 (unknown origin)
T2 sequence (P52564 whole entry): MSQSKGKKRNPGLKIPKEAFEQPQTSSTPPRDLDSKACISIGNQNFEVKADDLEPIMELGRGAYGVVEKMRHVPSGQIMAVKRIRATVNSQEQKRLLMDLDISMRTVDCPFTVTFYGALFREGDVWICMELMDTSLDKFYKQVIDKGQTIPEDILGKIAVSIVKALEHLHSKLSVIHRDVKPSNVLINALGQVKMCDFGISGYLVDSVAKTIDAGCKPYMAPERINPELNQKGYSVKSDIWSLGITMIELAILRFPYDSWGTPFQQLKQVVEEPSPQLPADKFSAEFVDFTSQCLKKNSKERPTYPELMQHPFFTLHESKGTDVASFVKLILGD

Chain of Mitogen-activated protein kinase kinase kinase 20 (Homo sapiens) (Q9NYL2 2-800 limits assumed): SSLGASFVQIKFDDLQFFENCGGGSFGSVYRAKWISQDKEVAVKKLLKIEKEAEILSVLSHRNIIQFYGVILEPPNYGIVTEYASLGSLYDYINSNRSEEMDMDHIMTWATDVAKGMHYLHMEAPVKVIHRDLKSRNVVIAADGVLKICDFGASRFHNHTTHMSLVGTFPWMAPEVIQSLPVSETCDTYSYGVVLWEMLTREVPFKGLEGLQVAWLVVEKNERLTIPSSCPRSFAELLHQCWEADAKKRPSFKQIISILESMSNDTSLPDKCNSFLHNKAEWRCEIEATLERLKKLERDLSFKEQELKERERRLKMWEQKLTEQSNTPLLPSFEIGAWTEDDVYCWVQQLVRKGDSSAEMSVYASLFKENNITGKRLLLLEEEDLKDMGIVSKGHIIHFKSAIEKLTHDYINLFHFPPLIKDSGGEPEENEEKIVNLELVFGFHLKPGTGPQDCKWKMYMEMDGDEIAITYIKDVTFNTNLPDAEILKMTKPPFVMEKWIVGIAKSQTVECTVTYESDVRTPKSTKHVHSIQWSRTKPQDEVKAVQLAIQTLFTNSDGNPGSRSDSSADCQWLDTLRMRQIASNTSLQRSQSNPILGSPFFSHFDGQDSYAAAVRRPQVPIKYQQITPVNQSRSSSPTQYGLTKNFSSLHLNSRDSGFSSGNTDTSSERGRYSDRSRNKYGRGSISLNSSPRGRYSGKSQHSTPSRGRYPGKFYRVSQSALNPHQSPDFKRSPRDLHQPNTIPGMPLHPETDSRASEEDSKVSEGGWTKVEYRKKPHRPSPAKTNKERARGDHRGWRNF

Activity [1] | Activity [2] | pIC50 [3] | SMILES
100% | 0.15% |  | CCCS(=O)(=O)Nc1ccc(F)c(C(=O)c2c[nH]c3ncc(-c4ccc(O)cc4)cc23)c1F
100% | 100% |  | CCCS(=O)(=O)Nc1ccc(F)c(C(=O)c2ccc3[nH]c4ncc(-c5ccc(Cl)cc5)cc4c3c2)c1F
98% | 89% |  | CCCS(=O)(=O)Nc1ccc(F)c(C(=O)c2ccc3[nH]c4ncc(-c5ccc(C(N)=O)cc5)cc4c3c2)c1F
 | 0% |  | CCCS(=O)(=O)Nc1ccc(F)c(C(=O)c2n[nH]c3ncc(-c4ccc(O)cc4)cc23)c1F
100% | 100% |  | CCCS(=O)(=O)Nc1ccc(F)c(C(=O)c2ccc3[nH]c4ncc(-c5ccc(O)cc5)cc4c3c2)c1F
100% | 100% |  | CCCS(=O)(=O)Nc1ccc(F)c(C(=O)c2ccc3[nH]c4ncc(-c5ccc(-c6nnn[nH]6)cc5)cc4c3c2)c1F
 |  | > 6.00 | NC(=O)c1ccc2[nH]c3ncnc(-c4ccccc4)c3c2c1
100% | 0.6% |  | CCCS(=O)(=O)Nc1ccc(F)c(C(=O)c2c[nH]c3ncc(-c4cccnc4)cc23)c1F
97% | 100% |  | CCCS(=O)(=O)Nc1ccc(F)c(C(=O)c2ccc3[nH]c4ncc(-c5ccc(S(=O)(=O)NCC(O)CO)cc5)cc4c3c2)c1F (stereo unspecified)
78% | 94% |  | CCCS(=O)(=O)Nc1ccc(F)c(C(=O)c2c[nH]c3ncc(-c4ccc(S(N)(=O)=O)cc4)cc23)c1F
96% | 100% |  | CCCS(=O)(=O)Nc1ccc(F)c(C(=O)c2ccc3[nH]c4ncc(-c5ccc(OCC(O)CO)cc5)cc4c3c2)c1F (stereo unspecified)
100% | 98% |  | CCCS(=O)(=O)Nc1ccc(F)c(C(=O)c2ccc3[nH]c4ncc(-c5ccc(C(=O)O)cc5)cc4c3c2)c1F
100% | 100% |  | CCCS(=O)(=O)Nc1ccc(F)c(C(=O)c2ccc3[nH]c4ncc(-c5ccc(S(N)(=O)=O)cc5)cc4c3c2)c1F
99% | 0.35% |  | CCCS(=O)(=O)Nc1ccc(F)c(C(=O)c2c[nH]c3ncc(-c4ccc(OCC(O)CO)cc4)cc23)c1F (stereo unspecified)
91% | 94% |  | CCCS(=O)(=O)Nc1ccc(F)c(C(=O)c2ccc3[nH]c4ncc(-c5ccncc5)cc4c3c2)c1F
100% | 100% |  | CCCS(=O)(=O)Nc1ccc(F)c(C(=O)c2ccc3[nH]c4ncc(-c5ccccc5F)cc4c3c2)c1F
100% | 88% |  | CCCS(=O)(=O)Nc1ccc(F)c(C(=O)c2ccc3[nH]c4ncc(-c5ccc(C(=O)NCC(O)CO)cc5)cc4c3c2)c1F (stereo unspecified)

SMILES | Activity [1] | Activity [2] | pIC50 [3]
CCCS(=O)(=O)Nc1ccc(F)c(C(=O)c2n[nH]c3ncc(-c4ccc(C(=O)NCC(O)CO)cc4)cc23)c1F (stereo unspecified) | 97% | 2.8% | 
CCCS(=O)(=O)Nc1ccc(F)c(C(=O)c2n[nH]c3ncc(-c4ccc(S(=O)(=O)NCC(O)CO)cc4)cc23)c1F (stereo unspecified) | 100% | 29% | 
